Literature values, collected in US20210213090A1, “COMPOSITIONS, USES AND METHODS FOR TREATMENT AND/OR PREVENTION OF ELEVATED CHOLESTEROL, HYPERCHOLESTEROLEMIA, AND CARDIOVASCULAR DISEASE” (Nutraceutical Holdings Inc., priority 2018, published 2021).

System: LDL-C / cholesterol
Conditions: human, in vivo

## COC1=C(OC)C(=O)C(C/C=C(\C)CC/C=C(\C)CC/C=C(\C)CC/C=C(\C)CC/C=C(\C)CC/C=C(\C)CC/C=C(\C)CC/C=C(\C)CC/C=C(\C)CCC=C(C)C)=C(C)C1=O [coenzyme Q10, ubiquinone]
  effect of supplementation on statin-related muscle symptoms, in words: decreases statin-related mild-to-moderate muscle symptoms
